Test results from PubChem BioAssay AID330 (DTP/NCI, 2004).
“And” between values parts separate entries of the source, which are not always exact repeats. Equal entries are not always repeated. Inconclusive results and toxic doses are left out. Rule for the calls: active = survival T/C of 150% or more; inactive = T/C below 125% in these data.

Test system: P388 leukemia ip, CD2F1 mice, survival T/C
Assay: NCI In Vivo Anticancer Drug Screen. Data for tumor model P388 Leukemia (intraperitoneal) in CD2F1 (CDF1) mice
Conditions: endpoint: median survival time, higher = longer survival
Method in brief: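 Mice carrying the transplanted tumor received test compound or vehicle. Survival was recorded in each group, and the value is the treated-group measurement divided by that of the vehicle-treated control group.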

[1] = dose: 50.0 mg/kg/injection, schedule: Q01DX005 (ip), vehicle: Klucel (hydroxypropylcellulose) (HPC)
[2] = dose: 100.0 mg/kg/injection, schedule: Q01DX005 (ip), vehicle: Klucel (hydroxypropylcellulose) (HPC)
[3] = dose: 200.0 mg/kg/injection, schedule: Q01DX005 (ip), vehicle: Klucel (hydroxypropylcellulose) (HPC)
[4] = dose: 60.0 mg/kg/injection, schedule: Q01DX005 (ip), vehicle: saline with Tween-80
[5] = dose: 120.0 mg/kg/injection, schedule: Q01DX005 (ip), vehicle: saline with Tween-80
[6] = dose: 240.0 mg/kg/injection, schedule: Q01DX005 (ip), vehicle: saline with Tween-80
[7] = dose: 100.0 mg/kg/injection, schedule: Q01DX009 (ip), vehicle: saline with Tween-80
[8] = dose: 200.0 mg/kg/injection, schedule: Q01DX009 (ip), vehicle: saline with Tween-80
[9] = dose: 12.5 mg/kg/injection, schedule: Q01DX009 (ip), vehicle: saline with Tween-80
[10] = dose: 25.0 mg/kg/injection, schedule: Q01DX009 (ip), vehicle: saline with Tween-80
[11] = dose: 50.0 mg/kg/injection, schedule: Q01DX009 (ip), vehicle: saline with Tween-80

Measured: T/C

Cc1ccc2nc3[nH]c(=O)[nH]c(=O)c3c(N)c2c1
inactive: [1] 101 % of control | [2] 104 % of control | [3] 102 % of control

N#CC(=Nc1ccc2ccccc2c1)C1=C(O)c2ccccc2C1=O
inactive: [1] 101 % of control | [2] 101 % of control | [3] 110 % of control

CC1=CC(C)=NC2NNC(=O)C12 (centres undefined)
inactive: [4] 110 % of control | [5] 109 % of control | [6] 105 % of control

CCCCCn1[nH]nc(C(=O)OC)c1=O (tested in a mixture with another compound)
inactive: [1] 102 % of control | [2] 95 % of control | [3] 103 % of control

CCOC(=O)c1cc(-c2ccc(Cl)cc2)nc2c(Cl)cc(Cl)cc12
inactive: [7] 93 % of control | [8] 94 % of control | dose: 400.0 mg/kg/injection, schedule: Q01DX009 (ip), vehicle: saline with Tween-80 88 % of control

S=P(Oc1cc(Cl)cc(Cl)c1)(Oc1cc(Cl)cc(Cl)c1)Oc1cc(Cl)cc(Cl)c1
inactive: [1] 97 % of control | [2] 100 % of control | [3] 100 % of control

CNC(=O)OCCC(OC(=O)NC)C1CCC2C3CC=C4CC(OC(=O)c5ccccc5)CCC4(C)C3CCC12C (centres undefined)
inactive: [1] 103 % of control | [2] 99 % of control | [3] 92 % of control

Cc1ccc(S(=O)(=O)OCCN(CCOS(=O)(=O)c2ccc(C)cc2)S(=O)(=O)c2ccc(C)cc2)cc1
inactive: dose: 50.0 mg/kg/injection, schedule: Q01DX009 (ip), vehicle: Klucel (hydroxypropylcellulose) (HPC) 108 % of control | dose: 100.0 mg/kg/injection, schedule: Q01DX009 (ip), vehicle: Klucel (hydroxypropylcellulose) (HPC) 100 % of control | dose: 200.0 mg/kg/injection, schedule: Q01DX009 (ip), vehicle: Klucel (hydroxypropylcellulose) (HPC) 102 % of control | dose: 400.0 mg/kg/injection, schedule: Q01DX009 (ip), vehicle: Klucel (hydroxypropylcellulose) (HPC) 95 % of control

NC1=C(O)C(=O)C(c2cccc3ccccc23)O1 (centres undefined)
inactive: [4] 98 % of control | [5] 93 % of control | [6] 88 % of control

O=C(CC1=NC2NN(c3ccccc3)C(=O)C2=C1CC(=O)c1cccc([N+](=O)[O-])c1)c1cccc([N+](=O)[O-])c1 (centres undefined)
inactive: [4] 95 % of control | [5] 99 % of control | [6] 86 % of control

c1ccc2sc(SCCSc3nc4ccccc4s3)nc2c1
inactive: dose: 60.0 mg/kg/injection, schedule: Q01DX005 (ip), vehicle: Klucel (hydroxypropylcellulose) (HPC) 99 % of control | dose: 120.0 mg/kg/injection, schedule: Q01DX005 (ip), vehicle: Klucel (hydroxypropylcellulose) (HPC) 92 % of control | dose: 240.0 mg/kg/injection, schedule: Q01DX005 (ip), vehicle: Klucel (hydroxypropylcellulose) (HPC) 89 % of control

S=C(S)N1CCCNCC1 (tested in a mixture with another compound)
inactive: [9] 101 % of control and 89 % of control | [10] 92 % of control and 97 % of control | [11] 86 % of control and 97 % of control

CCCCCCCCCCCC(=O)NC(=O)N1CCOCC1
inactive: dose: 100.0 mg/kg/injection, schedule: Q01DX001 (ip), vehicle: saline with Tween-80 95 % of control | dose: 200.0 mg/kg/injection, schedule: Q01DX001 (ip), vehicle: saline with Tween-80 100 % of control | dose: 400.0 mg/kg/injection, schedule: Q01DX001 (ip), vehicle: saline with Tween-80 100 % of control

O=C(O)c1cc(Cl)n[nH]c1=O
inactive: [1] 95 % of control | [2] 92 % of control | [3] 86 % of control

CC(=O)OCC#CCN1CCCCC1
inactive: dose: 6.25 mg/kg/injection, schedule: Q01DX005 (ip), vehicle: saline 102 % of control | dose: 12.5 mg/kg/injection, schedule: Q01DX005 (ip), vehicle: saline 104 % of control | dose: 25.0 mg/kg/injection, schedule: Q01DX005 (ip), vehicle: saline 101 % of control

O=C(/C=C/c1ccccc1)NCCC1(O)C(=O)Nc2ccccc21 (centres undefined)
inactive: dose: 25.0 mg/kg/injection, schedule: Q01DX005 (ip), vehicle: Klucel (hydroxypropylcellulose) (HPC) 102 % of control | [1] 100 % of control | [2] 90 % of control | [3] 88 % of control

Cc1nccc2c1[nH]c1cc(N)ccc12.[Cl][Sn][Cl]
inactive: dose: 5.0 mg/kg/injection, schedule: Q01DX009 (ip), vehicle: saline sonified 100 % of control | dose: 10.0 mg/kg/injection, schedule: Q01DX009 (ip), vehicle: saline sonified 95 % of control | dose: 20.0 mg/kg/injection, schedule: Q01DX009 (ip), vehicle: saline sonified 100 % of control

NC1CC(=O)N(Cc2ccccc2)C1=O (centres undefined)
inactive: dose: 50.0 mg/kg/injection, schedule: Q01DX005 (ip), vehicle: saline 97 % of control | dose: 100.0 mg/kg/injection, schedule: Q01DX005 (ip), vehicle: saline 91 % of control | dose: 200.0 mg/kg/injection, schedule: Q01DX005 (ip), vehicle: saline 93 % of control

O=C(N/N=C/c1ccccc1[OH2+])c1ccncc1.O=C(N/N=C/c1ccccc1[OH2+])c1ccncc1.[Cl-].[Mn+2]
inactive: dose: 100.0 mg/kg/injection, schedule: Q04DX002 (ip), vehicle: Klucel (hydroxypropylcellulose) (HPC) 112 % of control | dose: 200.0 mg/kg/injection, schedule: Q04DX002 (ip), vehicle: Klucel (hydroxypropylcellulose) (HPC) 107 % of control | dose: 400.0 mg/kg/injection, schedule: Q04DX002 (ip), vehicle: Klucel (hydroxypropylcellulose) (HPC) 94 % of control

C=C1C(=O)OC2CC3(C)C(CCC(C)=O)C3CC12 (centres undefined)
inactive: dose: 50.0 mg/kg/injection, schedule: Q01DX009 (ip), vehicle: saline 96 % of control | dose: 100.0 mg/kg/injection, schedule: Q01DX009 (ip), vehicle: saline 94 % of control | dose: 200.0 mg/kg/injection, schedule: Q01DX009 (ip), vehicle: saline 98 % of control

O=C(O)c1cccc(-n2ncc(Cl)c(Cl)c2=O)c1
inactive: [9] 113 % of control | [10] 108 % of control | [11] 99 % of control and 104 % of control | [8] 88 % of control

C/C1=C\CC(O)/C(C)=C/CC2=CCC(C(C)C)C2(C)CC1 (centres undefined)
inactive: dose: 4.0 mg/kg/injection, schedule: Q01DX009 (ip), vehicle: Klucel (hydroxypropylcellulose) (HPC) 101 % of control | dose: 8.0 mg/kg/injection, schedule: Q01DX009 (ip), vehicle: Klucel (hydroxypropylcellulose) (HPC) 101 % of control | dose: 16.0 mg/kg/injection, schedule: Q01DX009 (ip), vehicle: Klucel (hydroxypropylcellulose) (HPC) 102 % of control | dose: 32.0 mg/kg/injection, schedule: Q01DX009 (ip), vehicle: Klucel (hydroxypropylcellulose) (HPC) 102 % of control

COc1ccc([Si](C)(C)CNCCSS(=O)(=O)O)cc1
inactive: [11] 90 % of control | [7] 95 % of control | [8] 90 % of control

COc1cc(NCCCN=C(N)N)c2ncccc2c1
inactive: dose: 1.56 mg/kg/injection, schedule: Q01DX005 (ip), vehicle: saline with Tween-80 99 % of control | dose: 3.13 mg/kg/injection, schedule: Q01DX005 (ip), vehicle: saline with Tween-80 98 % of control | dose: 6.25 mg/kg/injection, schedule: Q01DX005 (ip), vehicle: saline with Tween-80 102 % of control and 92 % of control

Nc1ncnc2c1nc(Br)n2C1OC2COP(=O)(O)OC2C1O (centres undefined)
inactive: dose: 50.0 mg/kg/injection, schedule: Q01DX009 (ip), vehicle: suspension in saline 100 % of control | dose: 100.0 mg/kg/injection, schedule: Q01DX009 (ip), vehicle: suspension in saline 96 % of control | dose: 200.0 mg/kg/injection, schedule: Q01DX009 (ip), vehicle: suspension in saline 100 % of control
